Data reported in PubChem BioAssay (NCI).
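Assay format: 96-well plates, 48-hour exposure. The concentration for 50% growth inhibition is given as GI50. TGI is the concentration that stops growth completely.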

Experiments:
Experiment in all cases: inhibition of tumour cell growth, NCI panel, 48 h
EKVX NSCLC = tested on: EKVX NSCLC
ACHN renal = tested on: ACHN renal
MDA-MB-231 breast = tested on: MDA-MB-231 breast
MOLT-4 leukemia = tested on: MOLT-4 leukemia
SK-MEL-2 melanoma = tested on: SK-MEL-2 melanoma
HT29 colon = tested on: HT29 colon
DU-145 prostate = tested on: DU-145 prostate
OVCAR-8 ovarian = tested on: OVCAR-8 ovarian
RXF 393 renal = tested on: RXF 393 renal
OVCAR-3 ovarian = tested on: OVCAR-3 ovarian
HL-60(TB) leukemia = tested on: HL-60(TB) leukemia
MALME-3M melanoma = tested on: MALME-3M melanoma
T-47D breast = tested on: T-47D breast
NCI/ADR-RES ovarian = tested on: NCI/ADR-RES ovarian
COLO 205 colon = tested on: COLO 205 colon
TK-10 renal = tested on: TK-10 renal
HOP-92 NSCLC = tested on: HOP-92 NSCLC
SNB-75 CNS = tested on: SNB-75 CNS
OVCAR-5 ovarian = tested on: OVCAR-5 ovarian
RPMI-8226 leukemia = tested on: RPMI-8226 leukemia
SK-MEL-28 melanoma = tested on: SK-MEL-28 melanoma
SF-539 CNS = tested on: SF-539 CNS
SK-OV-3 ovarian = tested on: SK-OV-3 ovarian
SW-620 colon = tested on: SW-620 colon
SNB-19 CNS = tested on: SNB-19 CNS
HCC-2998 colon = tested on: HCC-2998 colon
LOX IMVI melanoma = tested on: LOX IMVI melanoma
K-562 leukemia = tested on: K-562 leukemia
SF-268 CNS = tested on: SF-268 CNS
CAKI-1 renal = tested on: CAKI-1 renal
PC-3 prostate = tested on: PC-3 prostate
OVCAR-4 ovarian = tested on: OVCAR-4 ovarian
CCRF-CEM leukemia = tested on: CCRF-CEM leukemia
NCI-H460 lung = tested on: NCI-H460 lung
UO-31 renal = tested on: UO-31 renal
UACC-62 melanoma = tested on: UACC-62 melanoma
IGROV1 ovarian = tested on: IGROV1 ovarian
HCT-15 colon = tested on: HCT-15 colon
HOP-62 NSCLC = tested on: HOP-62 NSCLC
HCT-116 colon = tested on: HCT-116 colon
NCI-H522 lung = tested on: NCI-H522 lung
SN12C renal = tested on: SN12C renal
UACC-257 melanoma = tested on: UACC-257 melanoma
SF-295 CNS = tested on: SF-295 CNS
BT-549 breast = tested on: BT-549 breast
U251 CNS = tested on: U251 CNS
KM12 colon = tested on: KM12 colon
A549 NSCLC = tested on: A549 NSCLC
A498 renal = tested on: A498 renal
M14 melanoma = tested on: M14 melanoma
HS 578T breast = tested on: HS 578T breast
MDA-MB-435 = tested on: MDA-MB-435
786-0 renal = tested on: 786-0 renal
SK-MEL-5 melanoma = tested on: SK-MEL-5 melanoma

Cc1cc2ncc(-c3cc4ccccc4c(N4CCN(C)CC4)n3)nc2cc1C
GI50 (EKVX NSCLC): 33.7 µM | TGI (EKVX NSCLC): > 100 µM | GI50 (ACHN renal): 2.14 µM | TGI (ACHN renal): 4.45 µM | GI50 (MDA-MB-231 breast): 2.98 µM | TGI (MDA-MB-231 breast): 10.3 µM | GI50 (MOLT-4 leukemia): 2.32 µM | TGI (MOLT-4 leukemia): 5.27 µM | GI50 (SK-MEL-2 melanoma): 16 µM | TGI (SK-MEL-2 melanoma): 31.2 µM | GI50 (HT29 colon): 1.63 µM | TGI (HT29 colon): 3.29 µM | GI50 (DU-145 prostate): 6.53 µM | TGI (DU-145 prostate): > 100 µM | GI50 (OVCAR-8 ovarian): 2.83 µM | TGI (OVCAR-8 ovarian): 8.57 µM | GI50 (RXF 393 renal): 2.01 µM | TGI (RXF 393 renal): 4.8 µM | GI50 (OVCAR-3 ovarian): 10.3 µM | TGI (OVCAR-3 ovarian): > 100 µM | GI50 (HL-60(TB) leukemia): 1.55 µM | TGI (HL-60(TB) leukemia): 3.56 µM | GI50 (MALME-3M melanoma): 1.75 µM | TGI (MALME-3M melanoma): 3.42 µM | GI50 (T-47D breast): 3.59 µM | TGI (T-47D breast): 15.4 µM | GI50 (NCI/ADR-RES ovarian): 5.76 µM | TGI (NCI/ADR-RES ovarian): > 100 µM | GI50 (COLO 205 colon): 1.87 µM | TGI (COLO 205 colon): 3.52 µM | GI50 (TK-10 renal): 20 µM | TGI (TK-10 renal): 44.1 µM | GI50 (HOP-92 NSCLC): 2.42 µM | TGI (HOP-92 NSCLC): 15.9 µM | GI50 (SNB-75 CNS): 11 µM | TGI (SNB-75 CNS): 24 µM | GI50 (OVCAR-5 ovarian): 8.87 µM | TGI (OVCAR-5 ovarian): 49.2 µM | GI50 (RPMI-8226 leukemia): 2.19 µM | TGI (RPMI-8226 leukemia): 5.33 µM | GI50 (SK-MEL-28 melanoma): 1.74 µM | TGI (SK-MEL-28 melanoma): 3.19 µM | GI50 (SF-539 CNS): 1.87 µM | TGI (SF-539 CNS): 3.98 µM | GI50 (SK-OV-3 ovarian): 36.6 µM | TGI (SK-OV-3 ovarian): > 100 µM | GI50 (SW-620 colon): 1.85 µM | TGI (SW-620 colon): 3.41 µM | GI50 (SNB-19 CNS): 20.2 µM | TGI (SNB-19 CNS): 89.8 µM | GI50 (HCC-2998 colon): 1.69 µM | TGI (HCC-2998 colon): 3.2 µM | GI50 (LOX IMVI melanoma): 1.81 µM | TGI (LOX IMVI melanoma): 3.34 µM | GI50 (K-562 leukemia): 1.82 µM | TGI (K-562 leukemia): 3.57 µM | GI50 (SF-268 CNS): 13.2 µM | TGI (SF-268 CNS): 55 µM | GI50 (CAKI-1 renal): 1.62 µM | TGI (CAKI-1 renal): 3.12 µM | GI50 (PC-3 prostate): 5.37 µM | TGI (PC-3 prostate): > 100 µM | GI50 (OVCAR-4 ovarian): 5.62 µM | TGI (OVCAR-4 ovarian): > 100 µM | GI50 (CCRF-CEM leukemia): 2.22 µM | TGI (CCRF-CEM leukemia): 5.93 µM | GI50 (NCI-H460 lung): 1.87 µM | TGI (NCI-H460 lung): 3.45 µM | GI50 (UO-31 renal): 4.35 µM | TGI (UO-31 renal): 17.2 µM | GI50 (UACC-62 melanoma): 1.89 µM | TGI (UACC-62 melanoma): 3.89 µM | GI50 (IGROV1 ovarian): 4.81 µM | TGI (IGROV1 ovarian): 61.2 µM | GI50 (HCT-15 colon): 1.82 µM | TGI (HCT-15 colon): 3.6 µM | GI50 (HOP-62 NSCLC): 21.2 µM | TGI (HOP-62 NSCLC): 79.5 µM | GI50 (HCT-116 colon): 1.67 µM | TGI (HCT-116 colon): 3.09 µM | GI50 (NCI-H522 lung): 11.6 µM | TGI (NCI-H522 lung): 28.9 µM | GI50 (SN12C renal): 6.07 µM | TGI (SN12C renal): 65.8 µM | GI50 (UACC-257 melanoma): 12.8 µM | TGI (UACC-257 melanoma): 26.4 µM | GI50 (SF-295 CNS): 14.2 µM | TGI (SF-295 CNS): 31.6 µM | GI50 (BT-549 breast): 14 µM | TGI (BT-549 breast): 29.2 µM | GI50 (U251 CNS): 2.11 µM | TGI (U251 CNS): 4.91 µM | GI50 (KM12 colon): 2.34 µM | TGI (KM12 colon): 5.47 µM | GI50 (A549 NSCLC): 81.6 µM | TGI (A549 NSCLC): > 100 µM | GI50 (A498 renal): 16.1 µM | TGI (A498 renal): 31.6 µM | GI50 (M14 melanoma): 1.75 µM | TGI (M14 melanoma): 3.21 µM | GI50 (HS 578T breast): 12.7 µM | TGI (HS 578T breast): 39.2 µM | GI50 (MDA-MB-435): 1.79 µM | TGI (MDA-MB-435): 3.36 µM | GI50 (786-0 renal): 1.68 µM | TGI (786-0 renal): 3.57 µM | GI50 (SK-MEL-5 melanoma): 12.8 µM | TGI (SK-MEL-5 melanoma): 29.4 µM
